How the values were obtained:
mPGES-1 = biological target: T1, mPGES-1 (Homo sapiens, UniProt O14684); assay: Cell-free mPGES-1 activity assay (PGE2 biosynthesis); assay type: biochemical; details: 10 μM, percentage of control (100%), read-out: mPGES-1 residual activity at 10 μM (%)
T1 construct: endogenous in cells; host or cells: A549 cells stimulated with IL-1β; microsomal fraction
T1 sequence (O14684 1-152): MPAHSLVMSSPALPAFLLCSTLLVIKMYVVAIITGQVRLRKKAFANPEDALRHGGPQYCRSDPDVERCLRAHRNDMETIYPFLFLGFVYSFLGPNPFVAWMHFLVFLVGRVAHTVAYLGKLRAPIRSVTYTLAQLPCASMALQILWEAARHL
Description: (Table 1). […] From the structural point of view, the biological affinities of compounds 3 and 7 (Figure 2A and C) could be positively affected by the 2-bromobenzoyl substituent able to accommodate in a deep binding pocket on the mPGES-1 surface. This moiety interacts by van der Waals contacts with amino acids of the cytoplasmic part and establishes π-stacking with Phe44ChainC and His53ChainC hydrogen bonds with Ser127, and a halogen bond between the bromine atom and the side chain of Aps49ChainC. Furthermore, the 3-phenylphenol and 2-aminobiphenyl moieties of 3 and 7 (Figure 2A and C), respectively, are able to establish a peculiar π-stacking with Tyr130ChainA and a hydrogen bond with Gln134ChainA. […]
mM glutathione, and 250 mM sucrose) and the protein concentration was defined. Potassium phosphate buffer (0.1 M, pH = 7.4) plus glutathione (2.5 mM) was added to dilute microsomes, which were then seeded in a 96-well plate. […]
preincubated for 15 min on ice. MK886 (10 µM) and MD-52 (1 µM) were used as reference drugs.
The reactions started by adding 20 µM of PGH2, and 1 min later, 100 µl of a solution containing FeCl3 (40 mM), citric acid (80 mM), and 11β-PGE 2 (10 µM) were added for stopping the conversion of PGH2. After the extraction of PGE2 and 11β-PGE 2 (internal stardard) by solid-phase extraction, […]

[1] = tested on: zymosan-induced peritonitis; assay: Zymosan-induced peritonitis in mice; assay type: in vivo, mouse; details: 3 mg/kg i.p.
Procedure: Figure 5 Effect of compound 3 in zymosan-induced peritonitis in mice. Mice were randomly divided into different experimental groups: control group (Ctrl), model group (zymosan + vehicle compound 3), zymosan + compound 3 (i.p. injection 30 min after i.p. injection of zymosan) group, and zymosan + dexamethasone (i.p. injection 30 min after i.p. injection of zymosan) group. At (A) 4 and (B) 24 h after injection, peritoneal exudate from each mouse was recovered, and the total cell number was evaluated. Results are expressed as mean ± SD. For statistical analysis see SI.
Figure 6 Analysis of cytokine levels collected in the peritoneal exudate of mice from different experimental groups: (A, B) IL-1β, (C, D) IL-6, (E, F) PGE2, and (G, H) IL-10. Results (normalized to exudate levels) are expressed as mean ± SD. For statistical analysis see SI.
Induction of peritonitis in mice and Enzyme-Linked Immunosorbent Assay (ELISA)
To examine the anti-inflammatory action of compound 3, we next evaluated the biological activity of
compound 3 in a mouse model of zymosan-induced peritonitis, as as previously described. 13,14 26, 27
To this aim, mice were randomly divided into different experimental groups: control group (Ctrl),
model group (zymosan + vehicle compound 3), zymosan + compound 3 (0.1, 1, and 10 mg/kg), and
zymosan + dexamethasone (3 mg/kg) group. Animals received the selected compound or
dexamethasone intraperitoneally (i.p.) 30 min after i.p. injection of zymosan (500 mg/kg)26, 27. Ctrl
and model groups received an equal volume of vehicle (PBS or DMSO/saline 1:3, respectively).
Peritoneal exudates were collected at selected time points (4 and 24 h) by washing the cavity with 2
mL of PBS. Then cell number of lavage fluids was determined by TC10 automated cell counter (Bio-
Rad, Milan, Italy) using disposable slides. The remaining lavage fluids were centrifuged at 3000 rpm
for 20 min at 4 °C, and supernatants were frozen at −80 °C for further ELISA analysis according to
the manufacturer instructions (eBioscience Co., San Diego, CA, USA)10 23 of IL-1β, IL-6, PGE 2 and
IL-10 following the procedure previously described15-17 28-30. Dexamethasone and zymosan A were
purchased from Sigma-Aldrich (Milan, Italy). DMSO was purchased from Merck (Italy). Unless
otherwise stated, all the other reagents were purchased from Carlo Erba (Milan, Italy).
The data and statistical analysis in this study comply with the international recommendations on
experimental design and analysis in preclinical pharmacology18-2031-33. The results obtained were
expressed as the mean ± S.D. or as mean ± S.E.M., as reported in detail in the figure legends. IC 50
values were calculated by nonlinear regression using GraphPad Prism Version 8.0 software (San
Diego, CA) one site binding competition. Statistical evaluation of the data was performed by one-

Compound	remaining activity at 10 µM (mPGES-1)	other results
Nc1ccccc1-c1ccc(-c2nnc(NC(=O)c3cc(F)ccc3F)s2)cc1 [compound 8]	> 50%	
Cc1ccoc1C(=O)Nc1nnc(-c2ccc(-c3cccc(O)c3)cc2)s1 [compound 1]	> 50%	
O=C(Nc1nnc(-c2ccc(-c3cccc(O)c3)cc2)s1)c1cc(F)ccc1F [compound 4]	> 50%	
Cc1cc(C(=O)Nc2nnc(-c3ccc(-c4cccc(O)c4)cc3)s2)cc(Cl)n1 [compound 2]	> 50%	
C[C@@H]1C[C@H]2[C@@H]3CCC4=CC(=O)C=C[C@]4(C)[C@@]3(F)[C@@H](O)C[C@]2(C)[C@@]1(O)C(=O)CO [dexamethasone, reference compound]		IL-1β level in peritoneal exudate ([1]; 4 and 24 h): more prominent effect; IL-6 level in peritoneal exudate ([1]; 4 and 24 h): more prominent effect; IL-10 level in peritoneal exudate ([1]; 4 and 24 h): more prominent effect; PGE2 level in peritoneal exudate ([1]; 4 and 24 h): more prominent effect; leukocyte numbers in the peritoneal cavity ([1]; 4 h (P ≤ 0.005) and 24 h (P ≤ 0.01)): significantly reduced
Cc1ccoc1C(=O)Nc1nnc(-c2ccc(-c3ccccc3N)cc2)s1 [compound 5]	> 25%	

Reference: article PMC9841589, “Identification of 2-Aminoacyl-1,3,4-thiadiazoles as Prostaglandin E2 and Leukotriene Biosynthesis Inhibitors” (ACS Medicinal Chemistry Letters, 2022)
